Consider 15 compounds from patent EP0367747A2, “Dideoxy-L-arabinitol derivatives as antiviral compounds” (G.D. Searle & Co., priority 1988, dated 1990).

In data set [1] the test system is Sheep choroid plexus(SCP) cells. In words: Toxicity of compounds in control wells without virus, graded morphologically 0 to 4. The class given is cell-based. Further details: key: 0 = no toxicity; 4 = total cell lyses. The note with it: 0 to 4 scale. The method, then: (§1) SCP cells were cultured in 6-well plates to confluence. Wells were washed two times with serum free Minimal Essential Medium (MEM) to remove FBS. 0.2ml of virus was added per well in MEM supplemented with 4mM glutamine and gentamycin. After 1 hour adsorption, the virus was aspirated from each well. The appropriate concentration of each compound in 5 ml of Medium 199 (M-199) supplemented with 2% lamb serum, 4mM glutamine, 0.5% agarose and gentamycin was added to each well. Cultures were incubated at 37°C in a humidified 5% CO₂ incubator for 3-4 weeks. To terminate the test: cultures were fixed in 10% formalin, the agar removed, the monolayers stained with 1% crystal violet and plaques counted. Each compound concentration was run in triplicate. […] 0 is no toxicity observed while 4 is total lysing of the cell monolayer.
Control wells without virus were completed to determine the toxicity of compounds.

Another data set deals with T1, Yeast alpha-glucosidase (Saccharomyces cerevisiae, UniProt P53341).
T1 construct: purchased Sigma
T1 sequence (P53341 whole entry): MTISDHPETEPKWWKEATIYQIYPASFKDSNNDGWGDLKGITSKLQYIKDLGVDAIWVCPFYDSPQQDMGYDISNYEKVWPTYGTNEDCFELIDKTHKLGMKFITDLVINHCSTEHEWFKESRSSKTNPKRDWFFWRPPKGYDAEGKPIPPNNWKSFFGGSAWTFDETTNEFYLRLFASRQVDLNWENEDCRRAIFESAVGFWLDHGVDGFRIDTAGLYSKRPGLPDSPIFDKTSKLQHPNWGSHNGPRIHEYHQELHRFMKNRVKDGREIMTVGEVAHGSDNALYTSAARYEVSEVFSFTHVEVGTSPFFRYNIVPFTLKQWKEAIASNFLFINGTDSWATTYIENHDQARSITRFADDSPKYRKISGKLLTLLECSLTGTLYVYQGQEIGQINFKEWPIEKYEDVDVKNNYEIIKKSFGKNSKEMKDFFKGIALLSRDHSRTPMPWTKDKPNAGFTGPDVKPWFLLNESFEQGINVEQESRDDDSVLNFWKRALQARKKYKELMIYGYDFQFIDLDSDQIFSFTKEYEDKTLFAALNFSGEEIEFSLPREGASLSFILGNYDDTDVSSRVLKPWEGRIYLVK
Put plainly: Alpha-glucosidase inhibition assay, pH 7.4 (p-nitrophenol release). The class given is biochemical. The procedure:
(§2) Yeast alpha-glucosidase and almond beta-glucosidase activities were measured by a modification of the method of Evans, et al., Phytochemistry 22, 768-770 (1983). The modifications included 1) assay of activities at pH 7.4 in HEPES (N-2-hydroxyethylpiperazine-N′-2-ethanesulfonic acid) buffer, 2) measurement in 96 well microtiter plates and 3) inclusion of 10% DMSO in control and test samples. The release of p-nitrophenol from the substrate p-nitrophenylglycoside was measured spectrophotometrically in the presence and absence of test compound. Each assay included a known inhibitor of the enzyme as a standard. IC₅₀ values were determined for compounds which inhibited the enzymes more than 50% at a 1 millimolar concentration. To 100 µl 50 mM HEPES buffer, pH 7.4, in a microtiter plate, add 20 µl test compound in DMSO (DMSO alone in control), 40 µl (0.013 units) yeast alpha-glucosidase (Sigma) in HEPES buffer and pre-incubate at room temperature for 15 minutes. […] Absorption change was measured at 15 to 25 minutes (reaction was linear for at least 30 minutes). Each sample was tested in triplicate. IC₅₀ values were determined from the linear portion of the log concentration vs % inhibition curve obtained from a minimum of 3 points. Deoxynojirimycin was used as standard inhibitor.

Data set [2] deals with almond beta-glucosidase. In words: Beta-glucosidase inhibition assay, pH 7.4 (p-nitrophenol release). The conditions noted are these: for β-Glucosidase pH 7.4 % Inhibition: Table 5, at 1.0 mM. The class given is biochemical. The method, then: as §2, with “µl (0.136” for “µl (0.013”, “units) beta-glucosidase” for “units) yeast alpha-glucosidase”, “(reaction is” for “(reaction was”, “points. Castanospermine” for “points. Deoxynojirimycin”

Data set [3] deals with almond beta-glucosidase. Put plainly: Beta-glucosidase inhibition assay, pH 4.8 (p-nitrophenol release). The class given is biochemical. The conditions noted are these: for β-Glucosidase pH 4.8 % Inhibition: Table 5, at 1.0 mM. The method, then: Yeast alpha-glucosidase and almond beta-glucosidase activities were measured by a modification of the method of Evans, et al., Phytochemistry 22, 768-770 (1983). The modifications included 1) assay of activities at pH 7.4 in HEPES (N-2-hydroxyethylpiperazine-N′-2-ethanesulfonic acid) buffer, 2) measurement in 96 well microtiter plates and 3) inclusion of 10% DMSO in control and test samples. The release of p-nitrophenol from the substrate p-nitrophenylglycoside was measured spectrophotometrically in the presence and absence of test compound. Each assay included a known inhibitor of the enzyme as a standard. IC₅₀ values were determined for compounds which inhibited the enzymes more than 50% at a 1 millimolar concentration. To 100 µl 50 mM sodium citrate buffer, pH 4.8, in a microtiter plate, add 15 µl test compound in DMSO (DMSO alone in control), 20 µl (.017 units) beta-glucosidase (Sigma) in citrate buffer and pre-incubate at room temperature for 15 minutes. Add 25 µl 2.50 mM p-nitrophenyl-beta-D-glucopyranside in citrate buffer, as substrate. Incubate at room temperature 20 minutes (reaction is linear for at least 30 minutes). Add 50 µl 0.4 M NaOH. Read absortion change at 405 nm in a Biotek EIA Autoreader. Each sample was tested in triplicate. IC₅₀ values were determined from the linear portion of the log concentration vs % inhibition curve obtained from a minimum of 3 points. Castanospermine was used as standard inhibitor.

In a further data set the test system is visna virus. In words: Inhibition of visna virus in vitro (plaque reduction assay / 96 well plate assay) in SCP cells. The class given is cell-based. The conditions noted are these: for inhibition at 1 µM / inhibition at 10 µM / inhibition at 100 µM / inhibition at 1000 µM / pEC50: Visna-maedi virus; for inhibition at 1 µM: Concentration 0.001 mM; for inhibition at 10 µM: Concentration 0.01 mM; for inhibition at 100 µM: Concentration 0.1 mM; for inhibition at 1000 µM: Concentration 1.0 mM; for pEC50: inhibition of visna virus, read-out: EC₅₀; for Antiviral Activity: Table 4. More on the design: key to Antiviral Activity: A = active compound; I = inactive. The method, then:
Various compounds as prepared above were tested for inhibition of visna virus in vitro in a plaque reduction assay as follows:
Sheep choroid plexus(SCP) cells were obtained from American Type Culture Collection (ATCC) catalogue number CRL 1700 and were routinely passaged in vitro in Dulbecco's Modified Eagles (DME) medium supplemented with 20% fetal bovine serum (FBS). SCP cells were passaged once per week at a 1:2 or 1:3 split ratio. Visna was titrated by plaque assay in six-well plates. Virus pools were stored at -70°C.
as §1
The 96 well plate assay was performed similarly to the plaque assay above with modifications. SCP cells were seeded at 1 x 10⁴ cells per well in 0.1 ml DME medium. When confluent, the wells were washed with serum free MEM and 25ul of virus added in M-199 supplemented with 2% lamb serum. After 1 hour, 75uL of medium containing test compound was added to each well containing virus. After 2-3 weeks incubation the cytopathic effect of the virus was determined by staining with a vital stain. Cell viability was measured by determining stain density using a 96 well plate reader.
For orientation: Plaques are areas of infected cells; plaque reduction assays count them against a control.

Where [4] appears, read: Table 5, values marked *, read-out: α-Glucosidase IC₅₀.
Where [5] appears, read: Table 3, pH 7.4, read-out: α-glucosidase IC₅₀.

pEC50, pIC50: −log10 of the molar value. Where two headings read alike, the source gives them in different places.

`OCCN1C[C@H](O)[C@@H](O)[C@@H]1CO` [Example 2, 1,4-Dideoxy-1,4-([2-hydroxyethyl]imino)-L-arabinitol]: the Toxicity in data set [1] (Table 4, 0.01 mM Concn.) is recorded as 0; in data set [1] (Table 4, 0.1 mM Concn.), 0. At Yeast alpha-glucosidase (setting [4]), the pIC50 is 3.75. For the same compound, in the data set with almond beta-glucosidase [2], the “β-Glucosidase pH 7.4 % Inhibition” value is given as 45%. The “β-Glucosidase pH 4.8 % Inhibition” value in the data set on almond beta-glucosidase [3] came out at 14%.

With `CCCCN1CC(O)C(O)C1CO` [Example 4, 1,4-(Butylimino)-1,4-dideoxy-L-arabinitol], the Toxicity turned out to be 0 in data set [1] (Table 4, 0.01 mM Concn.); 0 in data set [1] (Table 4, 0.1 mM Concn.); 0 in data set [1] (Table 4, 1.0 mM Concn.). The pIC50 at Yeast alpha-glucosidase (setting [4]) is 3.64. Besides, the “β-Glucosidase pH 7.4 % Inhibition” value in the data set on almond beta-glucosidase [2] is on record as 26%. For the same compound, in the data set with almond beta-glucosidase [3], the “β-Glucosidase pH 4.8 % Inhibition” value turned out to be 20%.

With `CCCCN1C[C@H](OC(C)=O)[C@@H](OC(C)=O)[C@@H]1COC(C)=O` [Example 5, 1,4-(Butylimino)-1,4-dideoxy-L-arabinitol, triacetate], in the data set with visna virus, the inhibition at 1 µM worked out at 9%, the inhibition at 10 µM came to 10%, the inhibition at 100 µM came out at 10% and the inhibition at 1000 µM amounted to 83%. The same compound showed a Toxicity in data set [1] (Concentration 0.001 mM) of 0. In data set [1] (Concentration 0.01 mM), this compound gave a Toxicity of 0. In addition, in data set [1] (Concentration 0.1 mM), the Toxicity was found to be 0. In data set [1] (Concentration 1.0 mM), the Toxicity was found to be 0.

Take `CCCCCCN1CC(O)C(O)C1CO` [Example 6, 1,4-(Hexylimino)-1,4-dideoxy-L-arabinitol]: the pEC50 in the data set on visna virus was 3.90. In addition, on Yeast alpha-glucosidase (setting [5]), the pIC50 was 4.46.

For `CCCCCCN1C[C@H](OC(C)=O)[C@@H](OC(C)=O)[C@@H]1COC(C)=O` [Example 7, 1,4-(Hexylimino)-1,4-dideoxy-L-arabinitol, triacetate], the “Antiviral Activity” value in the data set with visna virus (0.01 mM Concn.) and in the data set on visna virus (0.1 mM Concn.) was “A” in each case. The Toxicity in data set [1] (Table 4, 0.01 mM Concn.) is on record as 0; in data set [1] (Table 4, 0.1 mM Concn.), 2; in data set [1] (Table 4, 1.0 mM Concn.), 4.

Take `OC[C@H]1[C@H](O)[C@@H](O)CN1Cc1ccc(Cl)cc1` [Example 8, 1,4-([4-Chlorophenyl]methylimino)-1,4-dideoxy-L-arabinitol]: the Toxicity in data set [1] (Table 4, 0.01 mM Concn.) amounted to 0; in data set [1] (Table 4, 1.0 mM Concn.) it was 3. For the same compound, the pIC50 was 5.66 at Yeast alpha-glucosidase (setting [5]); below 3.00 on almond beta-glucosidase [2] (Table 3, at pH 7.4, read-out: β-glucosidase IC₅₀); below 3.00 on almond beta-glucosidase [3] (Table 3, at pH 4.8, read-out: β-glucosidase IC₅₀). In addition, the “β-Glucosidase pH 7.4 % Inhibition” value in the data set on almond beta-glucosidase [2] was 26%. Further, the “β-Glucosidase pH 4.8 % Inhibition” value in the data set on almond beta-glucosidase [3] is on record as 19%.

On to `CCc1ccc(CN2C[C@H](O)[C@@H](O)[C@@H]2CO)cc1` [Example 9, 1,4-([4-Ethylphenyl]methylimino)-1,4-dideoxy-L-arabinitol], for which the pEC50 in the data set on visna virus was 4.00.

Consider `CCc1ccc(CN2C[C@H](OC(C)=O)[C@@H](OC(C)=O)[C@@H]2COC(C)=O)cc1` [Example 10, 1,4-([4-Ethylphenyl]methylimino)-1,4-dideoxy-L-arabinitol, triacetate], for which the Toxicity in data set [1] (Table 4, 0.01 mM Concn.) came out at 1; in data set [1] (Table 4, 0.1 mM Concn.) it was 1; in data set [1] (Table 4, 1.0 mM Concn.), 4.

Take `CC(=O)OCCCCCN1C[C@H](OC(C)=O)[C@@H](OC(C)=O)[C@@H]1COC(C)=O` [Example 15, 1,4-([5-Acetyloxypentyl]imino)-1,4-dideoxy-L-arabinitol, triacetate]: the pEC50 with visna virus is 4.00.

As to `O=C(OCc1ccccc1)N1C[C@H](O)[C@@H](O)[C@@H]1CO` [Example 17, 1,4-(Benzyloxycarbonylimino)-1,4-dideoxy-L-arabinitol], the pIC50 on Yeast alpha-glucosidase (setting [4]) was 3.32. Besides, the “β-Glucosidase pH 7.4 % Inhibition” value in the data set on almond beta-glucosidase [2] was 4%. Further, the “β-Glucosidase pH 4.8 % Inhibition” value in the data set with almond beta-glucosidase [3] stood at 4%.

For the compound `CCCC(=O)OC[C@@H]1NC[C@H](OC(=O)CCC)[C@H]1OC(=O)CCC` [Example 23, 1,4-Imino-1,4-dideoxy-L-arabinitol, tributyrate], the pEC50 in the data set with visna virus is 6.00.

Turning to `CC(C)C(=O)OC[C@H]1[C@H](OC(=O)C(C)C)[C@@H](OC(=O)C(C)C)CN1C(=O)OCc1ccccc1` [Example 24, 1,4-(Benzyloxycarbonylimino)-1,4-dideoxy-L-arabinitol, triisobutyrate], at Yeast alpha-glucosidase (setting [4]), the pIC50 was 4.48. Also, in the data set on almond beta-glucosidase [2], the “β-Glucosidase pH 7.4 % Inhibition” value turned out to be 1%. Also, the “β-Glucosidase pH 4.8 % Inhibition” value in the data set on almond beta-glucosidase [3] turned out to be 7%.

Regarding `CC(=O)OC[C@H]1[C@H](OC(C)=O)[C@@H](OC(C)=O)CN1C(=O)c1ccccc1` [Example 27, 1,4-(Benzoylimino)-1,4-dideoxy-L-arabinitol, triacetate], at Yeast alpha-glucosidase (Table 3, at 1 mM, read-out: α-glucosidase Inhibitory Activity), the inhibition at 1000 µM came to 23%.

On to `CCC(=O)N1C[C@H](OC(C)=O)[C@@H](OC(C)=O)[C@@H]1COC(C)=O` [Example 31, 1,4-(Propionylimino)-1,4-dideoxy-L-arabinitol, triacetate], for which the Toxicity in data set [1] (Table 4, 0.1 mM Concn.) was 1; in data set [1] (Table 4, 1.0 mM Concn.), 3.

With `CCCCN1C[C@H](O)[C@@H](O)[C@H](O)[C@H]1CO` [N-Bu-DNJ, N-butyl derivative of 1,5-dideoxy-1,5-imino-D-glucitol, reference compound], in the data set on visna virus, the inhibition at 1 µM is -74%, the inhibition at 10 µM is 13%, the inhibition at 100 µM was 100% and the inhibition at 1000 µM was 100%. This compound also yielded a Toxicity in data set [1] (Concentration 0.001 mM) of 0. The same compound came in with a Toxicity in data set [1] (Concentration 0.01 mM) of 0. The same compound showed a Toxicity in data set [1] (Concentration 0.1 mM) of 1. This compound showed a Toxicity in data set [1] (Concentration 1.0 mM) of 2.
